Laboratory results as given in publication PMC11096368, “Transcriptomic signature, bioactivity and safety of a non-hepatotoxic analgesic generating AM404 in the midbrain PAG region” (Scientific Reports, 2024).

Experiments:
[1] = tested on: Sprague Dawley rats; assay: 28-day oral toxicity study with 14-day recovery (GLP); type: in vivo
Source text: (§1) We next set out to determine the toxicity and toxicokinetics of SRP-001 when administered via oral gavage once daily to Sprague–Dawley Rats for 28 d (Calvert Labs/Altasciences, Scott Township, PA USA). The study also assessed the reversibility of any toxicity observed with a 14-d recovery period. One hundred thirty-six experimentally naïve Sprague–Dawley rats (68 males and 68 females), 8 weeks old and weighing 167–295 g for males and females at the outset of the study, were assigned to toxicology treatment groups (Groups 1–4) or toxicokinetic groups (Groups 5–7). For toxicology groups, 10 animals/sex/dose were administered 0, 300, 900, or 1500 mg/kg/d SRP-001. An additional 5 animals/sex/dose in Groups 1 and 4 were targeted for a 14-d recovery period and euthanized on day 43. For toxicokinetic groups, 6 animals/sex/dose were administered 300, 900, or 1500 mg/kg/d SRP-001. Mortality/morbidity was performed twice daily and once prior to scheduled sacrifice. Animals in Groups 1–4 were observed prior to each dose administration and 1–3 h post-dose. Animals in Groups 1–4 were also observed once daily on non-dosing days and once prior to scheduled sacrifice. Body weights were recorded prior to randomization/selection, prior to dose administration on day 1, and weekly thereafter. Food consumption was determined weekly for animals in Groups 1–4. Ophthalmology examinations were performed before treatment initiation and during the last week of dosing for animals in Groups 1–4. The functional observational battery was assessed for 5 animals/sex/group in Groups 1–4 once prior to dosing and at 1–2 h following dose administration on day 1. Blood for evaluation of hematology, coagulation, and clinical chemistry and urine for urinalysis was collected from animals in Groups 1–4 on day 29 or day 43. Blood for toxicokinetic evaluation was collected from animals in Groups 5–7 at selected timepoints on days 1 and 28. All surviving animals in Groups 1–4 were sacrificed on day 29 or day 43. Selected tissues were harvested at necropsy, selected organs weighed, and selected tissues evaluated microscopically.
(§2) Following dosing, the reversibility of any toxicity observed was assessed with a 14-d recovery period of animals receiving 0 or 1500 mg/kg of SRP-001. SRP-001-related clinical signs included red staining around the forepaw, forelimbs, mouth, muzzle, and nose and brown-staining in the anogenital area. […] The majority of clinical signs were observed during the first 3 weeks of dosing, and by day 28, the majority of the animals appeared normal. […] These differences remained within or close to the historically normal ranges. Statistically significant differences in total protein, globulin, and mean corpuscular hemoglobin remained present in males after the recovery period, although at a smaller magnitude. SRP-001-related microscopic findings were limited to the liver and included minimal to mild centrilobular hepatocellular hypertrophy in both sexes at ≥ 300 mg/kg/d. This finding correlated with statistically significant increases in liver weights in both sexes.
(§3) Exposure to SRP-001 following oral gavage dosing at 300, 900, and 1500 mg/kg SRP-001 was dose-dependent, increasing with escalating doses following a single dose. […] Based on the parameters observed, the no-adverse effect level (NOAEL) of SRP-001, when administered once daily for 28 d to Sprague–Dawley rats, was 1500 mg/kg.

[2] = as above; type: in vivo, rats; conditions: both sexes, Sprague-Dawley, rat, in vivo, oral; once daily for 28 days; read-out: No-adverse effect level (NOAEL)
Source text: as §1, §2, §3

CCN(CC)C(=O)c1ccccc1S(=O)(=O)NCC(=O)Nc1ccc(O)cc1 [SRP-001, N,N-diethyl-2-[[2-(4-hydroxyanilino)-2-oxo-ethyl]sulfamoyl]benzamide]
Exposure versus dose ([1]; 300, 900, 1500 mg/kg, single dose and 28 days): dose-dependent | Body weight, food consumption, functional observation battery, ophthalmology, coagulation, urinalysis ([1]; 300, 900, 1500 mg/kg/d): no SRP-001-related effects | Doses without treatment-related adverse effects ([1]; 28 days of daily oral doses, rats): up to 1500 mg/kg/day | Doses with minimal to mild centrilobular hepatocellular hypertrophy (non-adverse) ([1]; both sexes, 28 d): ≥ 300 mg/kg/day | NOAEL at 28 d [2]: 1500 mg/kg
